Target: T1, full length AKT E17K (Homo sapiens, UniProt P31749, E17K)
T1 construct: host or cells: HEK-293 (ATCC CRL-1573)
Experiment: NanoBRET Target Engagement (TE) Assay
Type: cell-based
Conditions: competitive displacement of tracer in cells, read-out: AKT1 E17K IC50
Method in brief: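 Compound and tracer incubated 2 h before luminescence at donor 450 nm and acceptor 600 nm, with extracellular signal inhibited. EC50 by sigmoidal variable-slope regression.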

T1 sequence (P31749 whole entry E17K): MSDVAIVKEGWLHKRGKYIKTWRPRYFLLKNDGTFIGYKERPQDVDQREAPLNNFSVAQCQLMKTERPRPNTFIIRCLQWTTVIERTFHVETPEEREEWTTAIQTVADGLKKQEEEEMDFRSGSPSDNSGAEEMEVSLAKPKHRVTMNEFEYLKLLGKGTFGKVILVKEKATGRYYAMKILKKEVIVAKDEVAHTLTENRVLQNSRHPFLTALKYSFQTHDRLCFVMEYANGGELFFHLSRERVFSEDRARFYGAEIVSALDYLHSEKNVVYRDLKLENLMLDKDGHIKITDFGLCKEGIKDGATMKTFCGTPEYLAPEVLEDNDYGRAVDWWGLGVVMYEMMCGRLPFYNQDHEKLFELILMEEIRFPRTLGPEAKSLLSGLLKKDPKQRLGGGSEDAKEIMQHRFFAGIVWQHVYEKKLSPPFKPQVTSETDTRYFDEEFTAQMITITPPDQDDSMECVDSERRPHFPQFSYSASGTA

Structure (SMILES) | IC50
[2H]C([2H])([2H])Oc1ccc(-c2ccc3nc(-c4cccnc4N)n(-c4ccc(CN5CCC(Nc6ccnc(C#N)n6)CC5)cc4)c3n2)cn1 [Example 598, 4-((1-(4-(2-(2-aminopyridin-3-yl)-5-(6-(methoxy-d3)pyridin-3-yl)-3H-imidazo[4,5-b]pyridin-3-yl)benzyl)piperidin-4-yl)amino)pyrimidine-2-carbonitrile] | < 15 nM
N#Cc1nccc(NC2CCN(Cc3ccc(-n4c(-c5cncnc5)nc5ccc(-c6ccc(F)cn6)nc54)cc3)CC2)n1 [Example 601, 4-((1-(4-(5-(5-Fluoropyridin-2-yl)-2-(pyrimidin-5-yl)-3H-imidazo[4,5-b]pyridin-3-yl)benzyl)piperidin-4-yl)amino)pyrimidine-2-carbonitrile] | 600 to 10000 nM
N#Cc1nccc(NC2CCN(Cc3ccc(-n4c(-c5cccnc5N)nc5ccc(-c6ccc(F)cn6)cc54)cc3)CC2)n1 [Example 602, 4-((1-(4-(2-(2-Aminopyridin-3-yl)-6-(5-fluoropyridin-2-yl)-1H-benzo[d]imidazol-1-yl)benzyl)piperidin-4-yl)amino)pyrimidine-2-carbonitrile] | < 15 nM
N#Cc1nccc(NC2CCN(Cc3ccc(-n4c(-c5cccnc5N)nc5ccc(-c6ncc(F)cn6)nc54)cc3)CC2)n1 [Example 603, 4-((1-(4-(2-(2-Aminopyridin-3-yl)-5-(5-fluoropyrimidin-2-yl)-3H-imidazo[4,5-b]pyridin-3-yl)benzyl)piperidin-4-yl)amino)pyrimidine-2-carbonitrile] | < 15 nM
N#Cc1nccc(NC2CCN(Cc3ccc(-n4c(-c5cccnc5N)nc5ccc(-c6cnc(F)cn6)nc54)cc3)CC2)n1 [Example 605, 4-((1-(4-(2-(2-Aminopyridin-3-yl)-5-(5-fluoropyrazin-2-yl)-3H-imidazo[4,5-b]pyridin-3-yl)benzyl)piperidin-4-yl)amino)pyrimidine-2-carbonitrile] | < 15 nM
N#Cc1nccc(NC2CCN(Cc3ccc(-n4c(-c5cccnc5N)nc5ccc(-c6ccc(OCF)nc6)nc54)cc3)CC2)n1 [Example 606, 4-((1-(4-(2-(2-Aminopyridin-3-yl)-5-(6-(fluoromethoxy)pyridin-3-yl)-3H-imidazo[4,5-b]pyridin-3-yl)benzyl)piperidin-4-yl)amino)pyrimidine-2-carbonitrile] | < 15 nM
CCn1ncc(-c2ccc3nc(-c4cccnc4N)n(-c4ccc(CN5CCC(Nc6ccnc(C#N)n6)CC5)cc4)c3n2)n1 [Example 609, 4-((1-(4-(2-(2-Aminopyridin-3-yl)-5-(2-ethyl-2H-1,2,3-triazol-4-yl)-3H-imidazo[4,5-b]pyridin-3-yl)benzyl)piperidin-4-yl)amino)pyrimidine-2-carbonitrile] | < 15 nM
CC(C)n1ncc(-c2ccc3nc(-c4cccnc4N)n(-c4ccc(CN5CCC(Nc6ccnc(C#N)n6)CC5)cc4)c3n2)n1 [Example 610, 4-((1-(4-(2-(2-Aminopyridin-3-yl)-5-(2-isopropyl-2H-1,2,3-triazol-4-yl)-3H-imidazo[4,5-b]pyridin-3-yl)benzyl)piperidin-4-yl)amino)pyrimidine-2-carbonitrile] | < 15 nM
CC(C)n1cc(-c2ccc3nc(-c4cccnc4N)n(-c4ccc(CN5CCC(Nc6ccnc(C#N)n6)CC5)cc4)c3n2)nn1 [Example 611, 4-((1-(4-(2-(2-Aminopyridin-3-yl)-5-(1-isopropyl-1H-1,2,3-triazol-4-yl)-3H-imidazo[4,5-b]pyridin-3-yl)benzyl)piperidin-4-yl)amino)pyrimidine-2-carbonitrile] | < 15 nM
[2H]C([2H])([2H])c1nn(C)nc1-c1ccc2nc(-c3cccnc3N)n(-c3ccc(CN4CCC(Nc5ccnc(C#N)n5)CC4)cc3)c2n1 [Example 612, 4-((1-(4-(2-(2-Aminopyridin-3-yl)-5-(2-methyl-5-(methyl-d3)-2H-1,2,3-triazol-4-yl)-3H-imidazo[4,5-b]pyridin-3-yl)benzyl)piperidin-4-yl)amino)pyrimidine-2-carbonitrile] | < 15 nM
Cc1nn(C)nc1-c1ccc2nc(-c3cccnc3N)n(-c3ccc(CN4CCC(Nc5ccnc(C#N)n5)CC4)cc3)c2n1 [Example 614, 4-((1-(4-(2-(2-Aminopyridin-3-yl)-5-(2,5-dimethyl-2H-1,2,3-triazol-4-yl)-3H-imidazo[4,5-b]pyridin-3-yl)benzyl)piperidin-4-yl)amino)pyrimidine-2-carbonitrile] | < 15 nM
[2H]c1nn(C)nc1-c1ccc2nc(-c3cccnc3N)n(-c3ccc(CN4CCC(Nc5ccnc(C#N)n5)CC4)cc3)c2n1 [Example 616, 4-((1-(4-(2-(2-Aminopyridin-3-yl)-5-(2-methyl-2H-1,2,3-triazol-4-yl-5-d)-3H-imidazo[4,5-b]pyridin-3-yl)benzyl)piperidin-4-yl)amino)pyrimidine-2-carbonitrile] | < 15 nM
N#Cc1nccc(NC2CCN(Cc3ccc(-n4c(-c5cccnc5N)nc5ccc(-c6cnn(CF)n6)nc54)cc3)CC2)n1 [Example 618, 4-((1-(4-(2-(2-Aminopyridin-3-yl)-5-(2-(fluoromethyl)-2H-1,2,3-triazol-4-yl)-3H-imidazo[4,5-b]pyridin-3-yl)benzyl)piperidin-4-yl)amino)pyrimidine-2-carbonitrile] | < 15 nM
N#Cc1nccc(NC2CCN(Cc3ccc(-n4c(-c5cccnc5N)nc5ccc(-c6cn(CF)nn6)nc54)cc3)CC2)n1 [Example 619, 4-((1-(4-(2-(2-Aminopyridin-3-yl)-5-(1-(fluoromethyl)-1H-1,2,3-triazol-4-yl)-3H-imidazo[4,5-b]pyridin-3-yl)benzyl)piperidin-4-yl)amino)pyrimidine-2-carbonitrile] | < 15 nM

Now from value to compound:

IC50 | Structure (SMILES)
< 15 nM | N#Cc1nccc(NC2CCN(Cc3ccc(-n4c(-c5cccnc5N)nc5ccc(-c6cnccc6F)nc54)cc3)CC2)n1 [Example 595, 4-((1-(4-(2-(2-Aminopyridin-3-yl)-5-(4-fluoropyridin-3-yl)-3H-imidazo[4,5-b]pyridin-3-yl)benzyl)piperidin-4-yl)amino)pyrimidine-2-carbonitrile]
< 15 nM | Cc1ccnc(-c2ccc3nc(-c4cccnc4N)n(-c4ccc(CN5CCC(Nc6ccnc(C#N)n6)CC5)cc4)c3n2)c1 [Example 596, 4-((1-(4-(2-(2-Aminopyridin-3-yl)-5-(4-methylpyridin-2-yl)-3H-imidazo[4,5-b]pyridin-3-yl)benzyl)piperidin-4-yl)amino)pyrimidine-2-carbonitrile]
< 15 nM | [2H]c1nc(OC([2H])([2H])[2H])ccc1-c1ccc2nc(-c3cccnc3N)n(-c3ccc(CN4CCC(Nc5ccnc(C#N)n5)CC4)cc3)c2n1 [Example 597, 4-((1-(4-(2-(2-aminopyridin-3-yl)-5-(6-(methoxy-d3)pyridin-3-yl-2-d)-3H-imidazo[4,5-b]pyridin-3-yl)benzyl)piperidin-4-yl)amino)pyrimidine-2-carbonitrile]
600 to 10000 nM | N#Cc1nccc(NC2CCN(Cc3ccc(-n4c(-c5cccnc5N)nc5cc(C#N)c(O)nc54)cc3)CC2)n1 [Example 599, 2-(2-Aminopyridin-3-yl)-3-(4-((4-((2-cyanopyrimidin-4-yl)amino)piperidin-1-yl)methyl)phenyl)-5-hydroxy-3H-imidazo[4,5-b]pyridine-6-carbonitrile]
15 to 60 nM | N#Cc1nccc(NC2CCN(Cc3ccc(-n4c(-c5c(F)ccnc5N)nc5ccc(-c6ccc(F)cn6)nc54)cc3)CC2)n1 [Example 600, 4-((1-(4-(2-(2-Amino-4-fluoropyridin-3-yl)-5-(5-fluoropyridin-2-yl)-3H-imidazo[4,5-b]pyridin-3-yl)benzyl)piperidin-4-yl)amino)pyrimidine-2-carbonitrile]
< 15 nM | Cc1cnc(-c2ccc3nc(-c4cccnc4N)n(-c4ccc(CN5CCC(Nc6ccnc(C#N)n6)CC5)cc4)c3n2)nc1 [Example 604, 4-((1-(4-(2-(2-Aminopyridin-3-yl)-5-(5-methylpyrimidin-2-yl)-3H-imidazo[4,5-b]pyridin-3-yl)benzyl)piperidin-4-yl)amino)pyrimidine-2-carbonitrile]
15 to 60 nM | N#Cc1nccc(NC2CCN(Cc3ccc(-n4c(-c5cccnc5N)nc5ccc(-c6ccc(=O)n(CF)c6)nc54)cc3)CC2)n1 [Example 607, 4-((1-(4-(2-(2-Aminopyridin-3-yl)-5-(1-(fluoromethyl)-6-oxo-1,6-dihydropyridin-3-yl)-3H-imidazo[4,5-b]pyridin-3-yl)benzyl)piperidin-4-yl)amino)pyrimidine-2-carbonitrile]
< 15 nM | [2H]C([2H])([2H])n1ncc(-c2ccc3nc(-c4cccnc4N)n(-c4ccc(CN5CCC(Nc6ccnc(C#N)n6)CC5)cc4)c3n2)n1 [Example 608, 4-((1-(4-(2-(2-Aminopyridin-3-yl)-5-(2-(methyl-d3)-2H-1,2,3-triazol-4-yl)-3H-imidazo[4,5-b]pyridin-3-yl)benzyl)piperidin-4-yl)amino)pyrimidine-2-carbonitrile]
< 15 nM | N#Cc1nccc(NC2CCN(Cc3ccc(-n4c(-c5cccnc5N)nc5ccc(-c6cn[nH]n6)nc54)cc3)CC2)n1 [Example 613, 4-((1-(4-(2-(2-Aminopyridin-3-yl)-5-(2H-1,2,3-triazol-4-yl)-3H-imidazo[4,5-b]pyridin-3-yl)benzyl)piperidin-4-yl)amino)pyrimidine-2-carbonitrile]
< 15 nM | N#Cc1nccc(NC2CCN(Cc3ccc(-n4c(-c5cccnc5N)nc5ccc(-c6cnn(C7CC7)n6)nc54)cc3)CC2)n1 [Example 615, 4-((1-(4-(2-(2-Aminopyridin-3-yl)-5-(2-cyclopropyl-2H-1,2,3-triazol-4-yl)-3H-imidazo[4,5-b]pyridin-3-yl)benzyl)piperidin-4-yl)amino)pyrimidine-2-carbonitrile]
15 to 60 nM | N#Cc1nccc(NC2CCN(Cc3ccc(-n4c(-c5cccnc5N)nc5ccc(-c6ccc(=O)n(C(F)F)c6)nc54)cc3)CC2)n1 [Example 617, 4-((1-(4-(2-(2-Aminopyridin-3-yl)-5-(1-(difluoromethyl)-6-oxo-1,6-dihydropyridin-3-yl)-3H-imidazo[4,5-b]pyridin-3-yl)benzyl)piperidin-4-yl)amino)pyrimidine-2-carbonitrile]

From US12209087B2, “AKT1 modulators” (Alterome Therapeutics, Inc., priority 2022, dated 2025)
